We go through 36 substances from patent US20080292619A1, “Pharmaceutical Composition Containing Meltrin Antagonist” (MOCHIDA PHARMACEUTICAL CO., LTD., priority 2004, published 2008).

In the oligonucleotide strings, read from the 5' end, every base follows the letter of its sugar. An asterisk marks phosphorothioate; unmarked linkages are phosphodiester. Other units and linkages are bracketed, terminal groups are in braces. A string of capitals states the bases alone. d = 2'-deoxy (DNA)

In this data set the test system is human meltrin α RNA. The data set can be described thus: Suppression of human meltrin α expression by antisense compound in RD cell (real time PCR). The note with it: RD cell. Format: cell-based. In a few lines:
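RD cells transfected with heat-denatured antisense oligodeoxynucleotide plus Lipofectin in Opti-MEM for 4 h at 37° C, then cultured 18 h. Meltrin α RNA quantified by TaqMan RT-PCR against plasmid standard curve, GAPDH-corrected; suppression vs untreated cells, rated +/++/+++ for ≥30/50/70%.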

As for “H126: cagcagtcgtatcaaggtct (CAGCAGTCGTATCAAGGTCT; antisense; DNA, all phosphorothioate, methylation of C not given here)”, where the note is “corrected by GAPDH”, the “suppression rate of expression, 200 nM” value is on record as “+ (“+” when the suppression rate was at least 30%)”.

As to “H119: agccaaacttgtcacagaag (AGCCAAACTTGTCACAGAAG; antisense; DNA, all phosphorothioate, methylation of C not given here)”, for the setting “corrected by GAPDH”, the “suppression rate of expression, 200 nM” value is reported as “+ (“+” when the suppression rate was at least 30%)”.

For the substance “H131 + 10: aggccttttccaaggtggcc (AGGCCTTTTCCAAGGTGGCC; antisense; DNA, all phosphorothioate, methylation of C not given here)”, the “suppression rate of expression, 50 nM” value (corrected by GAPDH) is “+ (“+” when the suppression rate was at least 30%)”.

For the substance “H172: gcacagctgggggtagttgg (dG*dC*dA*dC*dA*dG*dC*dT*dG*dG*dG*dG*dG*dT*dA*dG*dT*dT*dG*dG; antisense)”, for the setting “corrected by GAPDH”, the “suppression rate of expression, 50 nM” value was “+ (“+” when the suppression rate was at least 30%)” and the “suppression rate of expression, 200 nM” value is recorded as “+++ (“+++” when the suppression rate was at least 70%)”.

For “H189: gccttgagtgacactacaga (dG*dC*dC*dT*dT*dG*dA*dG*dT*dG*dA*dC*dA*dC*dT*dA*dC*dA*dG*dA; antisense)”, the “suppression rate of expression, 200 nM” value (corrected by GAPDH) is on record as “+ (“+” when the suppression rate was at least 30%)”.

With “H139 + 10: tgcacgtggggcccggtgga (TGCACGTGGGGCCCGGTGGA; antisense; DNA, all phosphorothioate, methylation of C not given here)”, the “suppression rate of expression, 50 nM” value (corrected by GAPDH) was “+ (“+” when the suppression rate was at least 30%)”.

“H170: ccttgatcagaaagcaaaca (dC*dC*dT*dT*dG*dA*dT*dC*dA*dG*dA*dA*dA*dG*dC*dA*dA*dA*dC*dA; antisense)”: where the note is “corrected by GAPDH”, the “suppression rate of expression, 200 nM” value is reported as “+ (“+” when the suppression rate was at least 30%)”.

Consider “H139 + 13: aggtgcacgtggggcccggt (AGGTGCACGTGGGGCCCGGT; antisense; DNA, all phosphorothioate, methylation of C not given here)”, for which the “suppression rate of expression, 50 nM” value (corrected by GAPDH) is recorded as “+ (“+” when the suppression rate was at least 30%)”.

“H179: gttgtcaaggggcacagggc (dG*dT*dT*dG*dT*dC*dA*dA*dG*dG*dG*dG*dC*dA*dC*dA*dG*dG*dG*dC; antisense)”: the “suppression rate of expression, 200 nM” value (corrected by GAPDH) is given as “++ (“++” when the suppression rate was at least 50%)”.

For the substance “H137 + 4: tggggctgagggacattcag (TGGGGCTGAGGGACATTCAG; antisense; DNA, all phosphorothioate, methylation of C not given here)”, the “suppression rate of expression, 50 nM” value (corrected by GAPDH) is reported as “++ (“++” when the suppression rate was at least 50%)”.

Take “H075-OMe1: chimeric antisense oligonucleotide TGCTGcaactgctgaACACC, uppercase 2′-methoxy nucleotides, lowercase phosphorothioate nucleotides (TGCTGCAACTGCTGAACACC; 2'-O-methyl at 1, 2, 3, 4, 5, 16, 17, 18, 19, 20, other sugars, backbone and T or U not given here; lowercase gap nucleotides phosphorothioate)”: for the setting “chimeric 2′-methoxy antisense oligonucleotides”, the “suppression rate of expression, 200 nM” value is listed as “+ (“+” when the suppression rate was at least 30%)”.

Turning to “H133 + 4: cttcggtgggtaggaatctg (CTTCGGTGGGTAGGAATCTG; antisense; DNA, all phosphorothioate, methylation of C not given here)”, the “suppression rate of expression, 50 nM” value (corrected by GAPDH) is “++ (“++” when the suppression rate was at least 50%)”.

Regarding “H074: acaccatgggaaatgggtac (dA*dC*dA*dC*dC*dA*dT*dG*dG*dG*dA*dA*dA*dT*dG*dG*dG*dT*dA*dC; antisense)”, the “suppression rate of expression, 200 nM” value (corrected by GAPDH) is given as “+ (“+” when the suppression rate was at least 30%)”.

Regarding “H150: ttggtgtggatattgtggag (dT*dT*dG*dG*dT*dG*dT*dG*dG*dA*dT*dA*dT*dT*dG*dT*dG*dG*dA*dG; antisense)”, for the setting “corrected by GAPDH”, the “suppression rate of expression, 50 nM” value is listed as “+ (“+” when the suppression rate was at least 30%)” and the “suppression rate of expression, 200 nM” value is given as “+++ (“+++” when the suppression rate was at least 70%)”.

In the case of “H180: ccctgggagcctgcctgcca (dC*dC*dC*dT*dG*dG*dG*dA*dG*dC*dC*dT*dG*dC*dC*dT*dG*dC*dC*dA; antisense)”, the “suppression rate of expression, 200 nM” value (corrected by GAPDH) was “++ (“++” when the suppression rate was at least 50%)”.

Turning to “H145 + 3: gttctggccagaggatctgc (dG*dT*dT*dC*dT*dG*dG*dC*dC*dA*dG*dA*dG*dG*dA*dT*dC*dT*dG*dC; antisense)”, where the note is “corrected by GAPDH”, the “suppression rate of expression, 50 nM” value is on record as “++ (“++” when the suppression rate was at least 50%)”.

As to “H146 + 10: ctggccaaggcatgagtgag (dC*dT*dG*dG*dC*dC*dA*dA*dG*dG*dC*dA*dT*dG*dA*dG*dT*dG*dA*dG; antisense)”, under “corrected by GAPDH”, the “suppression rate of expression, 50 nM” value is listed as “+ (“+” when the suppression rate was at least 30%)”.

On to “H243: cagcagtattattttccagc (DNA dC*dA*dG*dC*dA*dG*dT*dA*dT*dT*dA*dT*dT*dT*dT*dC*dC*dA*dG*dC; antisense)”, for which the “suppression rate of expression, 200 nM” value (corrected by GAPDH) is on record as “+ (“+” when the suppression rate was at least 30%)”.

As for “H085: gcgcacacagcgtccggctt (dG*dC*dG*dC*dA*dC*dA*dC*dA*dG*dC*dG*dT*dC*dC*dG*dG*dC*dT*dT; antisense)”, where the note is “corrected by GAPDH”, the “suppression rate of expression, 200 nM” value is given as “+ (“+” when the suppression rate was at least 30%)”.

Consider “H046: tgccttcttgcccatgtctg (TGCCTTCTTGCCCATGTCTG; antisense; DNA, all phosphorothioate, methylation of C not given here)”, for which the “suppression rate of expression, 200 nM” value (corrected by GAPDH) is recorded as “++ (“++” when the suppression rate was at least 50%)”.

Take “H035: ctgaatcagaatatccccgt (CTGAATCAGAATATCCCCGT; antisense; DNA, all phosphorothioate, methylation of C not given here)”: the “suppression rate of expression, 200 nM” value (corrected by GAPDH) is “++ (“++” when the suppression rate was at least 50%)”.

Consider “H176: ggctctggcctgagatgggg (dG*dG*dC*dT*dC*dT*dG*dG*dC*dC*dT*dG*dA*dG*dA*dT*dG*dG*dG*dG; antisense)”, for which, under “corrected by GAPDH”, the “suppression rate of expression, 200 nM” value is on record as “+ (“+” when the suppression rate was at least 30%)”.

With “H139 + 19: gacgctaggtgcacgtgggg (GACGCTAGGTGCACGTGGGG; antisense; DNA, all phosphorothioate, methylation of C not given here)”, the “suppression rate of expression, 50 nM” value (corrected by GAPDH) was “+ (“+” when the suppression rate was at least 30%)”.

“H181: gccagatttctcccaggtgt (dG*dC*dC*dA*dG*dA*dT*dT*dT*dC*dT*dC*dC*dC*dA*dG*dG*dT*dG*dT; antisense)”: the “suppression rate of expression, 200 nM” value (corrected by GAPDH) is reported as “++ (“++” when the suppression rate was at least 50%)”.

With “H182: ccaaagcttcctggccagaa (dC*dC*dA*dA*dA*dG*dC*dT*dT*dC*dC*dT*dG*dG*dC*dC*dA*dG*dA*dA; antisense)”, the “suppression rate of expression, 200 nM” value (corrected by GAPDH) was “++ (“++” when the suppression rate was at least 50%)”.

“H107: ggcctccttgctgcaggggg (dG*dG*dC*dC*dT*dC*dC*dT*dT*dG*dC*dT*dG*dC*dA*dG*dG*dG*dG*dG; antisense)”: the “suppression rate of expression, 200 nM” value (corrected by GAPDH) was “++ (“++” when the suppression rate was at least 50%)”.

For the substance “H138: cactcgctgagttgactggg (CACTCGCTGAGTTGACTGGG; antisense; DNA, all phosphorothioate, methylation of C not given here)”, for the setting “corrected by GAPDH”, the “suppression rate of expression, 50 nM” value is “++ (“++” when the suppression rate was at least 50%)” and the “suppression rate of expression, 200 nM” value is listed as “+++ (“+++” when the suppression rate was at least 70%)”.

With “H136 + 18: tgagggacattcaggccgtt (TGAGGGACATTCAGGCCGTT; antisense; DNA, all phosphorothioate, methylation of C not given here)”, the “suppression rate of expression, 50 nM” value (corrected by GAPDH) is “++ (“++” when the suppression rate was at least 50%)”.

On to “H141: ggctggcaggggtctggcag (GGCTGGCAGGGGTCTGGCAG; antisense; DNA, all phosphorothioate, methylation of C not given here)”, for which, where the note is “corrected by GAPDH”, the “suppression rate of expression, 200 nM” value is given as “++ (“++” when the suppression rate was at least 50%)”.

Turning to “H109: tcatcgcccaagtacacgtg (dT*dC*dA*dT*dC*dG*dC*dC*dC*dA*dA*dG*dT*dA*dC*dA*dC*dG*dT*dG; antisense)”, the “suppression rate of expression, 200 nM” value (corrected by GAPDH) is recorded as “++ (“++” when the suppression rate was at least 50%)”.

As for “H145 + 1: tctggccagaggatctgcag (TCTGGCCAGAGGATCTGCAG; antisense; DNA, all phosphorothioate, methylation of C not given here)”, the “suppression rate of expression, 50 nM” value (corrected by GAPDH) is given as “+++ (“+++” when the suppression rate was at least 70%)”.

For “H237: gtgtcacgtgtttagtttat (DNA dG*dT*dG*dT*dC*dA*dC*dG*dT*dG*dT*dT*dT*dA*dG*dT*dT*dT*dA*dT; antisense)”, the “suppression rate of expression, 200 nM” value (corrected by GAPDH) was “+ (“+” when the suppression rate was at least 30%)”.

As for “H144 + 9: atctgcaggcagaggcttct (ATCTGCAGGCAGAGGCTTCT; antisense; DNA, all phosphorothioate, methylation of C not given here)”, the “suppression rate of expression, 50 nM” value (corrected by GAPDH) is reported as “+ (“+” when the suppression rate was at least 30%)”.

On to “H177: gcctggacctgaagcccctt (dG*dC*dC*dT*dG*dG*dA*dC*dC*dT*dG*dA*dA*dG*dC*dC*dC*dC*dT*dT; antisense)”, for which the “suppression rate of expression, 200 nM” value (corrected by GAPDH) is on record as “+++ (“+++” when the suppression rate was at least 70%)”.

Turning to “H041: gcttcttcgctgggaagagt (GCTTCTTCGCTGGGAAGAGT; antisense; DNA, all phosphorothioate, methylation of C not given here)”, the “suppression rate of expression, 200 nM” value (corrected by GAPDH) is recorded as “+ (“+” when the suppression rate was at least 30%)”.

“H100: actttgccacagttgccata (dA*dC*dT*dT*dT*dG*dC*dC*dA*dC*dA*dG*dT*dT*dG*dC*dC*dA*dT*dA; antisense)”: the “suppression rate of expression, 200 nM” value (corrected by GAPDH) is given as “+ (“+” when the suppression rate was at least 30%)”.
